# Assays:
# Type in all cases: cell-based
# Candida krusei 3-69/2 = assay: Antifungal activity in agar plates; details: storage 21 days at 6° C.; cultures incorporated in agar plates at 10^8 cfu/ml (SM17, SM39 10^7 cfu/ml); Ka-Sorbat 1 g/l; spot-inoculation with 10^6 cfu/ml
# Method: (§1) Agar plates were prepared, supplemented with Propionbacterium jensenii SM11 or an antimicrobial Lactobacillusor a combination of both. The cultures were previously grown separately for 72 h at 32° C. in supplemented whey permeate (SWP1), centrifugated, washed once and resuspended (1:1) in 0.85% NaCl and then serially diluted in dilution-buffer (0.85% NaCl, 0.1% peptone). Portions of 20 ml of agar were prepared with 10% of each dilution to give a final level of 10^5, 10^6, 10^7 and 10^8 cfu/ml. Agar plates were poured and after solidifying, portions of approximately 2-5 μl of broth cultures of the indicator strains were spot inoculated on the plates. YM agar was used for yeasts and moulds and BHI agar for bacteria. Triplex of the agar plates were stored at 6° C., 12° C. and 25° C. for up to 4 weeks and the growth of indicator organisms was controlled weekly for 6° C. or daily for 12° C. and 25° C. As a control, agar plates without supplementation of lactobacilli and propionibacteria were prepared as well as agar plates with an addition of 1 g/l Ka-Sorbat (EU-Richtlinie, Nr. 95/2/HG).
# (§2) A total of 18 lactobacilli were tested for their antifungal activities alone or in combination with the high-antifungal Propionibacterium jensenii SM11. Therefore, the strains were incorporated, after centrifugation and a washing step in concentrations from 10^5 to 10^8 cfu/ml in YM agar plates on which the fungi listed in Table 1 were spotted in corresponding levels from 10^1 to 10^7 cfu/ml. The plates were stored in different batches at 6° C., 12° C. and 25° C. The growth of yeasts was controlled weekly or daily, respectively. […] A cell number of 10^8 cfu/ml of the Lactobacillus-strain and 10^8 cfu/ml of the Propionibacterium-strain was necessary for high inhibitory activities. Table 4 indicates five examples of the antifungal activities observed at 6° C. with a concentration of 10^8 cfu/ml (10^7 cfu/ml for Lactobacillus plantarum SM17) against spot-inoculated yeasts in a density of 10^6 cfu/ml and against spot-inoculated 3-day cultures of moulds.
# Candida magnoliae 1-35/1 = assay: Antifungal activity in agar plates; details: storage 21 days at 6° C.; cultures incorporated in agar plates at 10^8 cfu/ml (SM17, SM39 10^7 cfu/ml); Ka-Sorbat 1 g/l; spot-inoculation with 10^6 cfu/ml
# Method: as §1, §2
# [1] = test system: Candida parapsilosis 4-5/1; assay: Antifungal activity in agar plates; details: storage 21 days at 6° C.; cultures incorporated in agar plates at 10^8 cfu/ml (SM17, SM39 10^7 cfu/ml); Ka-Sorbat 1 g/l; spot-inoculation with 10^6 cfu/ml
# Method: as §1, §2
# [2] = test system: Candida pulcherrima 1-50/13; assay: Antifungal activity in agar plates; details: storage 21 days at 6° C.; cultures incorporated in agar plates at 10^8 cfu/ml (SM17, SM39 10^7 cfu/ml); Ka-Sorbat 1 g/l; spot-inoculation with 10^6 cfu/ml
# Method: as §1, §2
# Candida reukaufii 4-73/4 = assay: Antifungal activity in agar plates; details: storage 21 days at 6° C.; cultures incorporated in agar plates at 10^8 cfu/ml (SM17, SM39 10^7 cfu/ml); Ka-Sorbat 1 g/l; spot-inoculation with 10^6 cfu/ml
# Method: as §1, §2
# Candida silvicola 4-42/1 = assay: Antifungal activity in agar plates; details: storage 21 days at 6° C.; cultures incorporated in agar plates at 10^8 cfu/ml (SM17, SM39 10^7 cfu/ml); Ka-Sorbat 1 g/l; spot-inoculation with 10^6 cfu/ml
# Method: as §1, §2
# Candida sp. 1-50/15 = assay: Antifungal activity in agar plates; details: storage 21 days at 6° C.; cultures incorporated in agar plates at 10^8 cfu/ml (SM17, SM39 10^7 cfu/ml); Ka-Sorbat 1 g/l; spot-inoculation with 10^6 cfu/ml
# Method: as §1, §2
# Candida valida 1-48/8 = assay: Antifungal activity in agar plates; details: storage 21 days at 6° C.; cultures incorporated in agar plates at 10^8 cfu/ml (SM17, SM39 10^7 cfu/ml); Ka-Sorbat 1 g/l; spot-inoculation with 10^6 cfu/ml
# Method: as §1, §2
# [3] = test system: Sporobolomyces salmonicolor 3-46/2; assay: Antifungal activity in agar plates; details: storage 21 days at 6° C.; cultures incorporated in agar plates at 10^8 cfu/ml (SM17, SM39 10^7 cfu/ml); Ka-Sorbat 1 g/l; spot-inoculation with 10^6 cfu/ml
# Method: as §1, §2
# [4] = test system: Zygosaccharomyces bailii 1-48/1; assay: Antifungal activity in agar plates; details: storage 21 days at 6° C.; cultures incorporated in agar plates at 10^8 cfu/ml (SM17, SM39 10^7 cfu/ml); Ka-Sorbat 1 g/l; spot-inoculation with 10^6 cfu/ml
# Method: as §1, §2
# fungi listed in Table 1 = assay: Antifungal activities in agar plates (overall statements); details: YM agar plates stored at 6° C.
# Method: as §1
# A total of 18 lactobacilli were tested for their antifungal activities alone or in combination with the high-antifungal Propionibacterium jensenii SM11. […]
structure (smiles),measurement,setting,value
C/C=C/C=C/C(=O)[O-].[K+] [Ka-Sorbat],colony growth of Candida krusei 3-69/2,Candida krusei 3-69/2,− (− no colony (≈100% inhibition))
same,colony growth of Candida magnoliae 1-35/1,Candida magnoliae 1-35/1,++ (++ strong colony (≈0% inhibition))
same,colony growth of Candida parapsilosis 4-5/1,[1],− (− no colony (≈100% inhibition))
same,colony growth of Candida pulcherrima 1-50/13,[2],++ (++ strong colony (≈0% inhibition))
same,colony growth of Candida reukaufii 4-73/4,Candida reukaufii 4-73/4,++ (++ strong colony (≈0% inhibition))
same,colony growth of Candida silvicola 4-42/1,Candida silvicola 4-42/1,++ (++ strong colony (≈0% inhibition))
same,colony growth of Candida sp. 1-50/15,Candida sp. 1-50/15,++ (++ strong colony (≈0% inhibition))
same,colony growth of Candida valida 1-48/8,Candida valida 1-48/8,− (− no colony (≈100% inhibition))
same,colony growth of Sporobolomyces salmonicolor 3-46/2,[3],− (− no colony (≈100% inhibition))
same,colony growth of Zygosaccharomyces bailii 1-48/1,[4],− (− no colony (≈100% inhibition))
same,"antifungal (inhibitory) activity in agar plates, in words",fungi listed in Table 1,weaker inhibitory activity

# — patent US7927639B2, “Mixture of Propionibacterium jensenii and Lactobacillus sp. with antimicrobial activities for the use as natural preservation system” (Eidgenossische Technische Hochschule Zurich, priority 2001, dated 2011)
